Key:
[1] = system: AGEs (advanced glycation end products) formation; experiment: In vitro inhibitory activity of AGEs formation (bovine serum albumin/glucose, fluorescence)
Experimental: Advanced glycation end products are a group of complex and heterogeneous compounds, which are implicated in a number of biochemical abnormalities associated with diabetes[21]^,[22]. Therefore, the discovery of AGEs inhibitors would be beneficial to the prevention and treatment of diabetic or other pathogenic complications.
To prepare the AGE reaction solution, 10 mg/ml of bovine serum albumin in 50 mM PBS (pH 7.4) was added to 0.2 M glucose, and 0.02% sodium azide was added to prevent bacterial growth. The reaction mixture (3 ml) was then mixed with various concentrations (0.5–1000 µg/ml) of the target compounds (1 ml) dissolved in DMSO. After incubating at 37 °C for 14 d, the fluorescence intensity of AGE was determined by a fluorospectrophotometer (PE, Cincinnati, OH) with excitation and emission wavelengths at 350 nm and 420 nm[30], respectively. All experiments were run in triplicate. Aminoguanidine hydrochloride was used as a reference compound. The inhibition rate of AGEs formation and the IC50 value of each sample were calculated according to the formula. Inhibition rate %={[(AC−AB)−(AS−ASB)]/(AC−AB)}×100% where AC is the absorbance of control group (1.0 ml glucose +1.0 ml bovine serum albumin +1.0 ml sodium azide +1.0 ml DMSO); AB is the absorbance of blank group (1.0 ml PBS +1.0 ml bovine serum albumin +1.0 ml sodium azide +1.0 ml DMSO); AS is the absorbance of sample group (1.0 ml glucose +1.0 ml bovine serum albumin +1.0 ml sodium azide +1.0 ml target compound solution or aminoguanidine hydrochloride solution); ASB is the absorbance of sample blank group (1.0 ml PBS +1.0 ml bovine serum albumin +1.0 ml sodium azide +1.0 ml target compound solution or aminoguanidine hydrochloride solution).

[2] = system: STZ-induced diabetic mice; experiment: Acute hypoglycaemic assay in STZ-diabetic mice; type: in vivo; settings: for Blood glucose concentration: mean ± SEM, six mice
Experimental: The antidiabetic activity was determined by using a standard method. […] Especially, compound 7c caused significant decreases in blood glucose levels when compared with vehicle-treated groups (p < .05). […] In STZ-diabetic animals, the hypoglycaemic effect of pterostilbene (40 mg/kg of bw) was larger than 50% since 5 h and persisted throughout the experiment. Target compound 7c (40 mg/kg of bw) caused significant decreases in blood glucose levels compared with pterostilbene (40 mg/kg of bw).
Type II DM was induced in mice by a single intraperitoneal injection of freshly prepared STZ (Sigma Aldrich, St. Louis, MO) dissolved in 0.1 M citrate buffer, pH 4.5, in a […] of 120 mg/kg of bw. After seven days of STZ administration, blood glucose levels of each mouse were determined. Mice with blood glucose levels higher than 11 mM were considered diabetic and were included in the study.
STZ-induced diabetic mice and normal mice were placed in single cages with wire-net floors and deprived of food for 12 h before experimentation but allowed free access to tap water throughout. The compounds (at the doses of 10, 40, and 100 mg/kg of bw) were suspended in 0.05% Tween-80 in saline solution. Glibenclamide (10 mg/kg of bw) was suspended in the same vehicle. The target compounds were freshly prepared immediately before experimentation and administered by the intragastrical route at the doses of 10 ml/kg of bw. Control mice received only the vehicle (0.05% Tween-80 in saline solution) by the same route. Blood glucose levels were measured at 0, 1.5, 3, 5, 7, and 9 h after drugs administration.

α-Glucosidase = target: T1, α-Glucosidase (Saccharomyces cerevisiae, UniProt P53341); experiment: biochemical; settings: read-out: IC50 value, α-Glucosidase inhibitory activity
T1 construct: purchased Sigma Aldrich G0660-750UN
T1 sequence (P53341 whole entry): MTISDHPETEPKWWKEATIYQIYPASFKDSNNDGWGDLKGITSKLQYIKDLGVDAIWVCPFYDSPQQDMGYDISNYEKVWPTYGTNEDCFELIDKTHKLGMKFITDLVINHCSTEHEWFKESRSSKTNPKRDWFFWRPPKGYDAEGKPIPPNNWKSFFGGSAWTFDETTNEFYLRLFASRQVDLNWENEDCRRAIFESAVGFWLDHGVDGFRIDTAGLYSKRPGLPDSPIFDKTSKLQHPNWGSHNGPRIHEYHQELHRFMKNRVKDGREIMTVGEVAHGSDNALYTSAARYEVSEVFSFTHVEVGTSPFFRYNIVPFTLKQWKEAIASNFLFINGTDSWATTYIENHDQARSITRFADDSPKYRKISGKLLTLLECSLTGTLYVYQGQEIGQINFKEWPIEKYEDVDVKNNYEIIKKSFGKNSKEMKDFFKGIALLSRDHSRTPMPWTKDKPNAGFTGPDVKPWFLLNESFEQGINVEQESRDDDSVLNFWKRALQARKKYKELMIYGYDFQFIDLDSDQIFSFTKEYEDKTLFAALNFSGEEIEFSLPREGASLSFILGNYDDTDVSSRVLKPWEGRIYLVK
Experimental: α-Glucosidases, enzymes anchored in the brush border of the small intestine, are responsible for catalysing the hydrolysis of carbohydrates.
α-Glucosidase (G0660-750UN, Sigma Aldrich, St. Louis, MO) and 4-nitrophenyl α-D-glucopyranoside (PNPG, Macklin) were dissolved in phosphate buffer (pH 6.8, 100 mM), and the test compounds were dissolved in DMSO solution. The experiment was divided into blank group, control group, sample blank group and sample group. The reagents were loaded in 96-well plates at the dose of the table (Table 3). The solution was bathed in 37 °C water for 10 min, after the end, enzyme solution was added. After reaction at 37 °C for 20 min, 70 µL Na2CO3 solution ([…]) was added to stop the reaction. All experiments were run in triplicate. […] Since PNPG can produce glucose and p-nitrophenol (PNP) under the action of α-glucosidase, PNP has the greatest absorption at 405 nm. The absorbance was determined by the microplate reader, and the inhibition rate of α-glucosidase and the IC50 value of each sample were calculated according to the formula. Inhibition rate %={[(AC−AB)−(AS−ASB)]/(AC−AB)}×100% where AC is the absorbance of control group; AB is the absorbance of blank group; AS is the absorbance of sample group; ASB is the absorbance of sample blank group.

## COc1cc(/C=C/c2ccc(OCCCCCCO[N+](=O)[O-])cc2)cc(OC)c1 [3c]
[1]; 50% inhibition of fluorescence intensity of AGE relative to 0.1% DMSO, mean ± SD (n = 3)
  IC50: 1.49 ± 0.2 µM
[1]; ratio to AG
  AGEs formation inhibitory activity compared with positive reference AG: over 100 folds
[2]; dose 10 mg/kg per os, 0 h
  Blood glucose concentration: 22.6 ± 7.0 mM
[2]; dose 10 mg/kg per os, 1.5 h
  Blood glucose concentration: 18.1 ± 7.3 mM
[2]; dose 10 mg/kg per os, 1.5 h vs 0 h
  % Variation of glycaemia: –20.13%
[2]; dose 10 mg/kg per os, 3 h
  Blood glucose concentration: 17.0 ± 6.6 mM
[2]; dose 10 mg/kg per os, 3 h vs 0 h
  % Variation of glycaemia: –24.78%
[2]; dose 10 mg/kg per os, 5 h
  Blood glucose concentration: 16.8 ± 6.1 mM
[2]; dose 10 mg/kg per os, 5 h vs 0 h
  % Variation of glycaemia: –25.66%
[2]; dose 10 mg/kg per os, 7 h
  Blood glucose concentration: 15.7 ± 4.3 mM
[2]; dose 10 mg/kg per os, 7 h vs 0 h
  % Variation of glycaemia: –30.53%
[2]; dose 10 mg/kg per os, 9 h
  Blood glucose concentration: 13.2 ± 3.5 mM
[2]; dose 10 mg/kg per os, 9 h vs 0 h
  % Variation of glycaemia: –41.59%
[2]; dose 40 mg/kg per os, 0 h
  Blood glucose concentration: 21.7 ± 5.7 mM
[2]; dose 40 mg/kg per os, 1.5 h
  Blood glucose concentration: 17.2 ± 5.6 mM
[2]; dose 40 mg/kg per os, 1.5 h vs 0 h
  % Variation of glycaemia: –20.74%
[2]; dose 40 mg/kg per os, 3 h
  Blood glucose concentration: 16.3 ± 7.5 mM
[2]; dose 40 mg/kg per os, 3 h vs 0 h
  % Variation of glycaemia: –25.04%
[2]; dose 40 mg/kg per os, 5 h
  Blood glucose concentration: 15.7 ± 6.4 mM
[2]; dose 40 mg/kg per os, 5 h vs 0 h
  % Variation of glycaemia: –27.57%
[2]; dose 40 mg/kg per os, 7 h
  Blood glucose concentration: 14.3 ± 9.6 mM
[2]; dose 40 mg/kg per os, 7 h vs 0 h
  % Variation of glycaemia: –34.02%
[2]; dose 40 mg/kg per os, 9 h
  Blood glucose concentration: 9.9 ± 4.6 mM
[2]; dose 40 mg/kg per os, 9 h vs 0 h
  % Variation of glycaemia: –54.30%
[2]; dose 100 mg/kg per os, 0 h
  Blood glucose concentration: 18.6 ± 1.9 mM
[2]; dose 100 mg/kg per os, 1.5 h
  Blood glucose concentration: 15.9 ± 3.6 mM
[2]; dose 100 mg/kg per os, 1.5 h vs 0 h
  % Variation of glycaemia: –14.34%
[2]; dose 100 mg/kg per os, 3 h
  Blood glucose concentration: 15.2 ± 3.0 mM
[2]; dose 100 mg/kg per os, 3 h vs 0 h
  % Variation of glycaemia: –18.28%
[2]; dose 100 mg/kg per os, 5 h
  Blood glucose concentration: 15.1 ± 3.7 mM
[2]; dose 100 mg/kg per os, 5 h vs 0 h
  % Variation of glycaemia: –19.00%
[2]; dose 100 mg/kg per os, 7 h
  Blood glucose concentration: 13.4 ± 4.7 mM
[2]; dose 100 mg/kg per os, 7 h vs 0 h
  % Variation of glycaemia: –28.23%
[2]; dose 100 mg/kg per os, 9 h
  Blood glucose concentration: 11.1 ± 3.0 mM
[2]; dose 100 mg/kg per os, 9 h vs 0 h
  % Variation of glycaemia: –40.32%
α-Glucosidase
  IC50: 83.1 ± 16.2 µM

Reference: article PMC7011920, “Synthesis and biological evaluation of stilbene derivatives coupled to NO donors as potential antidiabetic agents” (Journal of Enzyme Inhibition and Medicinal Chemistry, 2018)
